“Also recorded” adds a separate entry of the source. Where two headings read alike, the source gives them in different places.
Columns and labels:
[1] = test system: Meloidogyne incognita and Meloidogyne hapla; test: Root-knot Nematode Egg Hatch Assay (soil drench); type: in vivo; conditions: for % Egg Hatching: Example 3, 1 ml/cm^2, sand-loam soil, relative to distilled water control (100)
Source text: (§1) Test method: A peracetic acid stock solution containing 5% PAA and 22% H2O2 (VigorOx® from PeroxyChem, LLC) was used for methods that specified 1750 ppm PAA. A peracetic acid stock solution containing 15% PAA and 10% H2O2 (VigorOx SP-15) was used for methods that specified 3525 ppm PAA. A stock solution of formaldehyde (37% in 10-15% methanol) was used to prepare a 1% aqueous solution of formaldehyde (with about 0.3% methanol).
(§2) Solutions were applied as the soil drench with an application volume of 12 kL/ha. The Test Medium was: pasteurized 50:50 Loamy sand or pasteurized sand. The efficacy of PAA was evaluated in three different Greenhouse Test Assays: 1) the Tomato Root-knot Galling Index Assay using the nematode species Meloidogyne incognita and Meloidogyne hapla; 2) the Root-knot Nematode Egg Hatch Assay using the nematode species Meloidogyne incognita and Meloidogyne hapla; and 3) assay of levels of soil bacteria using Bacillus mycoides.
The Root-knot Nematode Egg Hatch Assay was carried out essentially as follows. Eggs were collected from roots of infected tomato plants. To release the eggs, the egg masses were placed in a solution of sodium hypochlorite and manually shaken. The solution was centrifuged and the eggs washed with distilled water. Eggs were kept in the dark until needed for the experiments and used in the same day of collection. The experiments were performed in pots filled with pasteurized soil inoculated with about several thousands of individual eggs and then drenched with each treatment solution and controls. The treated soils were covered and incubated for the time periods indicated below. Following the incubation period, the soils were transferred to collect hatched J2 (second stage juveniles). The collected material was observed under the microscope and the number of J2 counted.
Seedlings were inoculated and cultured in pasteurized Pemberton soil for 14 days. Seedlings were then treated with either formaldehyde, 1750 ppm PAA or 3525 ppm PAA for 13 days. Nematode eggs were extracted from infected roots and their ability to hatch was evaluated.
Test method: A peracetic acid stock solution containing 15% PAA and 10% H2O2 (VigorOx SP-15) was used for methods that specified 3750, 5000, 7500, 10000 ppm PAA. Capryleth-9 carboxylic acid (C9CA) was used at concentrations of 5000 and 10000 ppm. A stock solution of formaldehyde (37% in 10-15% methanol) was used to prepare a 1% aqueous solution of formaldehyde. The final methanol concentration was about 0.3%.
Solutions were applied as a soil drench with an application volume of 12 kL/ha. The Test Medium was pasteurized Pemberton loamy soil, sand or pasteurized sand. The efficacy of PAA was evaluated with the Root-Knot Nematode Egg Hatch Assay using the nematode species Meloidogyne incognita and Meloidogyne hapla.
Seedlings were inoculated and cultured for 22 days and then treated for 21 days with either PAA alone at various concentrations, C9CA alone at various concentrations, or a combination of PAA and C9CA. Nematode eggs were extracted from infected roots and their ability to hatch was evaluated.
Test method: A peracetic acid stock solution containing 15% PAA and 10% H2O2 (VigorOx SP-15) was used for methods that specified 3500 and 20,000 ppm PAA. Capryleth-9 carboxylic acid (C9CA) was used at concentrations of 250 and 10000 ppm.
Solutions were applied as a soil drench with an application volume of 1 ml/cm^2. The Test Medium was pasteurized sand-loam soil. The efficacy of PAA was evaluated with the Root-knot Nematode Egg Hatch Assay using the nematode species Meloidogyne incognita and Meloidogyne hapla.
The viability of the root-knot nematodes eggs used for each set of experiments in this example was also evaluated. Eggs were incubated with the different solutions in glass dishes in the dark at 25° C. They were observed daily under the microscope to confirm that the eggs were viable and able to hatch in water after 18 hr/24 hr of incubation.

Bacillus mycoides = type: cell-based; conditions: treated four days, soil
Source text: as §1, §2
Soil was inoculated with Bacillus mycoides, incubated for five days and then treated with formaldehyde or […] for four days. Bacteria were collected from soil and their levels were evaluated based on colony forming units.

[2] = test system: Meloidogyne incognita and Meloidogyne hapla; type: in vivo
Source text: as §1, §2

[3] = test system: Bacillus subtilis ATCC 19659; test: Sporicidal assay in soil; type: cell-based; conditions: 3525 ppm PAA; 1 hour, 2 and 7 days treatment
Method: Test method: A peracetic acid stock solution containing 15% PAA and 10% H2O2 (VigorOx SP-15) was used for methods that specified 3525 ppm PAA. Deionized water was used as a control.
Solutions were applied as the soil drench with an application volume of 1.5 ml/cm^2. The Test Medium was pasteurized Pemberton soil. The spore inoculum was Bacillus subtilis ATCC 19659. Spores were counted as follows: Soil was pasteurized to remove background microbial content. The soil was distributed into test cells. Concentrated Bacillus subtilis ATCC 19659 spore suspension was diluted in Butterfield's buffer and used as the inoculum in this test. For titer determination, the inoculum was diluted in Butterfield's buffer and plated on Petrifilm APC. In order to test for antimicrobial efficacy following treatments, soil was scooped from the cell and measured into a sterile plastic centrifuge tube. Deionized water was then added to each soil sample. The tubes were then capped, shaken to suspend soil, and vortexed at maximum speed using the lab vortex. The samples were allowed to settle for several seconds, and then 2 mL of fluid was removed from the tube. One ml of the removed sample was diluted in 9 mL Butterfield's buffer. The remainder of the removed sample was plated onto Petrifilm APC. […] The plates were all incubated at 30±2° C. for 2-5 days and then colonies on the plates were counted.

[4] = test system: Aspergillus niger ATCC 16404; test: Fungicidal assay in soil; type: cell-based
Method: Test method: A peracetic acid stock solution containing 15% PAA and 10% H2O2 (VigorOx SP-15) was used for methods that specified 3500 and 20,000 ppm PAA. Capryleth-9 carboxylic acid (C9CA) was used at concentrations of 5000 and 30,000 ppm.
Solutions were applied as a soil drench with an application volume of 1.5 ml/cm^2. The Test Medium was pasteurized Pemberton soil. The spore inoculum was Aspergillus niger ATCC 16404. The fungicidal activity of the compositions was evaluated as follows: Soil was pasteurized to remove background microbial content. The soil was the filled into test cells. Aspergillus niger ATCC 16404 was grown on Potato Dextrose Agar (PDA) plates for 5 days at 35° C. A culture for test was prepared by washing a plate with Butterfield's buffer, grinding in a sterile tissue grinder, and filtering through a cell filter to remove hyphae and debris. The suspension was diluted 1:100 in Butterfield's buffer and was added to the soil as the inoculum. The inoculum was enumerated on Petrifilm APC to determine the titer. In order to analyze antimicrobial efficacy following the treatments, soil was scooped from the cell and weighed into a sterile plastic cup. Sterile deionized water was added to the cup using a serological pipette. The cups were then capped, shaken to suspend soil, and vortexed at maximum speed using the lab vortex. The samples were allowed to settle for several seconds, and then 2 mL of fluid was removed from the tube. One ml of the removed fluid was diluted in 9 mL Butterfield's buffer. The remaining removed fluid was plated onto Petrifilm Petrifilm YM. The diluted sample was further serially diluted and plated to 10^−3 on YM. The plates were all incubated at 35±2° C. for 3 to 4 days and colonies were counted.

C=O [Formaldehyde, formaldehyde, reference compound]
% Reduction of J2 Population ([1]; in vivo): 60%
% Reduction of J2 population ([1]; in vivo): 78%
% Reduction in population (CFU's) (Bacillus mycoides; at 1%): 42.5%
Root-knot Galling Index ([2]; in vivo): 2

CC(=O)OO [PAA, peracetic acid]
bacterial spores capable of giving rise to viable colonies recovered [3]: no bacterial spores capable of giving rise to viable colonies were recovered
% Reduction of J2 population ([1]; Example 1, 1750 ppm PAA, 12 kL/ha, treated 13 days, Pemberton soil): did not reduce
% Reduction of J2 population ([1]; Example 1, 3525 ppm PAA, 12 kL/ha, treated 13 days, Pemberton soil): 51%
% Reduction of J2 Population ([1]; Example 2, 5000 ppm PAA, 12 kL/ha, 21 days after treatment): 20%
% Reduction of J2 Population ([1]; Example 2, 10000 ppm PAA, 12 kL/ha, 21 days after treatment): 28%
% Egg Hatching ([1]; 20000 ppm PAA): 53%
% Reduction in population (CFU's) (Bacillus mycoides; 1750 ppm PAA): 47.5%
Log10 CFU ([4]; 3500 ppm PAA, 1 hour): 3.2 Log10 CFU
Log10 CFU ([4]; 3500 ppm PAA, 24 hours): 0.0 Log10 CFU
Log10 Reduction ([4]; 3500 ppm PAA, 24 hours): completely eliminated; also recorded: Total kill
elimination of Aspergillus niger ([4]; 7000 ppm PAA, one hour of treatment): complete elimination
Log10 CFU ([4]; 7500 ppm PAA, 1 hour): 0.0 Log10 CFU
Log10 Reduction ([4]; 7500 ppm PAA, 1 hour): Total kill
Log10 CFU ([4]; 7500 ppm PAA, 24 hours): 0.0 Log10 CFU
Log10 Reduction ([4]; 7500 ppm PAA, 24 hours): Total kill
Root-knot Galling Index ([2]; 1750 ppm PAA, soil drench 12 kL/ha, treated 27 days, scale 0=no galling to 10=severe galling): only a modest reduction

Capryleth-9 Carboxylic Acid [C9CA]
% Reduction of J2 Population ([1]; Example 2, 10000 ppm C9CA, 12 kL/ha, 21 days after treatment): 10%
% Egg Hatching ([1]; 250 ppm C9CA): 66%

— patent publication US20180103638A1, “SOIL TREATMENT” (PeroxyChem LLC, priority 2016, published 2018)
